Laboratory results taken from PMC10790229 (Journal of medicinal chemistry, 2023).
Where two headings read alike, the source gives them in different places.

Assays:
[1] = Metabolic stability in human liver microsomes
[2] = in vivo, cited from earlier work
HIV-1 IIIB = assay: Anti-HIV-1 activity in MT-4 cells; type: cell-based; conditions: for fold improvement of anti-HIV-1 potency over 11L / fold improvement of anti-HIV-1 potency over PF74 / SI IIIB (CC50/EC50): HIV-1 IIIB; for fold improvement of anti-HIV-1 potency over 11L / fold improvement of anti-HIV-1 potency over PF74 / Ratio IIIB(EC50)/ROD(EC50) / SI IIIB (CC50/EC50): MT-4 cells; for EC50: Human immunodeficiency virus 1, IIIB, MT4, read-out: EC50 IIIB
HIV-2 ROD = assay: Anti-HIV-2 activity in MT-4 cells; type: cell-based
[3] = Cytotoxicity in uninfected MT-4 cells; type: cell-based; conditions: human
[4] = target: monomeric HIV-1 CA NL4.3 protein (Human immunodeficiency virus type 1 group M subtype B, UniProt P12493); assay: SPR binding to monomeric HIV-1 CA; conditions: for Residence Time Monomer / koff Monomer: SPR, CA monomer
[5] = target: hexameric HIV-1 CA NL4.3 protein (Human immunodeficiency virus type 1, UniProt P12493); assay: SPR binding to disulfide-stabilized hexameric HIV-1 CA; conditions: for Residence Time Hexamer / koff Hexamer: CA hexamer; for Kd: read-out: KD Hexamer, CA hexamer
[6] = system: hexameric HIV-1 CA NL4.3 protein; assay: as above
HIV-1 [7] = type: cell-based; conditions: 1 μM compound; DMSO = 100
[8] = target: reverse transcriptase (RT) (Human immunodeficiency virus type 1 group M subtype B, UniProt P04585); assay: In vitro reverse transcriptase inhibition assay; type: biochemical, HIV-1; conditions: 900 nM
[9] = target: CPSF6 peptide binding to hexameric HIV-1 CA NL4.3 protein (Human immunodeficiency virus type 1, UniProt P12493); assay: SPR-based CPSF6 peptide competition assay; conditions: read-out: IC50 CPSF6 peptide competition, CA hexamer
HIV-1 CA-NC = HIV-1 CA-NC (Human immunodeficiency virus type 1 group M subtype B, UniProt P12493); assay: FRET-based in vitro CA assembly assay; type: biochemical; conditions: 50 μM compound
[10] = system: p24 content of produced pseudoviruses; assay: ELISA-based quantification of capsid; type: cell-based, HIV-1; conditions: compound at 10× over EC50
in vitro [11] = type: in vitro ADME; conditions: human, plasma
[12] = human
in vitro [13] = conditions: human, microsomes
[14] = In vivo pharmacokinetic study in SD rats; conditions: Sprague-Dawley, rat
MT-4 cells = assay: Cytotoxicity in uninfected MT-4 cells; type: cell-based
HIV-1 [15] = conditions: read-out: EC50 antiviral activity; MT-4 cells; cited from earlier work
[16] = Human immunodeficiency virus 2, MT4, read-out: EC50 ROD
[17] = read-out: EC50 ROD, 50% protection of MT-4 cells against HIV-induced cytotoxicity, HIV-2 ROD

## C[C@]12CC[C@H]3[C@@H](CCC4=CC(=O)CC[C@@]43C)[C@@H]1CC[C@@H]2O [Testosterone, testosterone]
[1]
  remaining at 1 h, 1 µM: 95.8%

## CC(C)(C#Cc1ccc(-c2ccc(Cl)c3c(NS(C)(=O)=O)nn(CC(F)(F)F)c23)c([C@H](Cc2cc(F)cc(F)c2)NC(=O)Cn2nc(C(F)(F)F)c3c2C(F)(F)[C@@H]2C[C@H]32)n1)S(C)(=O)=O [LEN, Lenacapavir]
[2]; po
  oral half-life T1/2: 240 to 288 h
[2]; sc
  subcutaneous half-life T1/2: 8–12 weeks

## COc1ccc(-n2c([C@H](Cc3cc(F)cc(F)c3)NC(=O)CN3CCN(S(=O)(=O)c4ccc(N)cc4)CC3=O)nc3ccccc3c2=O)cc1 [12a2, (S)-2-(4-((4-Aminophenyl)sulfonyl)-2-oxopiperazin-1-yl)-N-(2-(3,5-difluorophenyl)-1-(3-(4-methoxyphenyl)-4-oxo-3,4-dihydroquinazolin-2-yl)ethyl)acetamide]
HIV-1 IIIB
  fold improvement of anti-HIV-1 potency over 11L: 2.5 fold
  fold improvement of anti-HIV-1 potency over PF74: 7.3 fold
  EC50: 0.11 ± 0.03 µM
  Ratio IIIB(EC50)/ROD(EC50): 1.10
HIV-2 ROD; HIV-2 ROD, MT-4 cells
  SI ROD (CC50/EC50): >1736.11
  fold improvement of anti-HIV-2 potency over PF74: approximately 40 fold
HIV-2 ROD; [16]
  EC50: 0.1 ± 0.01 µM
[3]
  CC50: > 178 µM
[4]
  Kd: 0.838 ± 0.17 µM
  Residence Time Monomer: 0.203 min
  koff Monomer: 0.082 ± 0.011 s⁻¹
[5]
  fold increase in affinity toward the CA hexamer compared to 11L: 2 fold
  Residence Time Hexamer: 0.321 min
  koff Hexamer: 0.052 ± 0.005 s⁻¹
  Kd: 0.561 ± 0.031 µM
[6]
  Ratio KD Monomer/KD Hexamer: 1.490
HIV-1 [7]
  % Infection Early Stage: 0.092 ± 0.013%
  % Infection Late Stage: 0.019 ± 0.002%
[8]
  RT activity compared to RT control: about 80%
[9]
  IC50: 0.189 ± 0.0898 µM
HIV-1 CA-NC
  effect on CA assembly: enhance CA assembly
[10]
  p24 content of the produced virus: did not change significantly
In vitro [11]
  remaining at 2 h: 110%
[12]
  intrinsic CL in microsomes, CLint(mic): 143.4 mL/min/kg
In vitro [13]
  CLint scaled: 129 mL/min/kg
  half-life: 9.7 min
  microsomal CLint: 143 µL/min/mg
In vitro [13]; % Remaining (NCF = 60 min)
  remaining at 1 h: 107%
In vitro [13]; % Remaining (T = 60 min)
  remaining at 1 h: 1.1%

## COc1ccc(N(C)C(=O)[C@H](Cc2ccccc2)NC(=O)CN2CCN(S(=O)(=O)c3ccc(N)cc3)CC2=O)cc1 [11L, reference compound]
HIV-1 IIIB
  EC50: 0.28 ± 0.09 µM
[3]
  CC50: 198 ± 6.85 µM

## Nc1ccc(S(=O)(=O)N2CCN(CC(=O)N[C@@H](Cc3cc(F)cc(F)c3)c3nc4ccccc4c(=O)n3-c3ccc(S(=O)(=O)N4CCOCC4)cc3)C(=O)C2)cc1 [21a2, (S)-2-(4-((4-Aminophenyl)sulfonyl)-2-oxopiperazin-1-yl)-N-(2-(3,5-difluorophenyl)-1-(3-(4-(morpholinosulfonyl)phenyl)-4-oxo-3,4-dihydroquinazolin-2-yl)ethyl)acetamide]
HIV-1 IIIB
  SI IIIB (CC50/EC50): >1329.79
  fold improvement of anti-HIV-1 potency over 11L: 2.5 fold
  fold improvement of anti-HIV-1 potency over PF74: 7.3 fold
  EC50: 0.11 ± 0.05 µM
  Ratio IIIB(EC50)/ROD(EC50): 1.38
HIV-2 ROD; HIV-2 ROD, MT-4 cells
  SI ROD (CC50/EC50): >1923.08
HIV-2 ROD; [16]
  EC50: 0.08 ± 0.01 µM
[3]
  CC50: > 152 µM
[4]
  Kd: 0.244 ± 0.037 µM
  Residence Time Monomer: 0.417 min
  koff Monomer: 0.040 ± 0.007 s⁻¹
[5]
  Residence Time Hexamer: 1.389 min
  koff Hexamer: 0.012 ± 0.000 s⁻¹
  Kd: 0.199 ± 0.019 µM
[6]
  Ratio KD Monomer/KD Hexamer: 1.230
HIV-1 [7]
  % Infection Early Stage: 0.109 ± 0.046%
  % Infection Late Stage: 0.017 ± 0.003%
[8]
  RT activity compared to RT control: about 80%
[9]
  IC50: 0.163 ± 0.0471 µM
HIV-1 CA-NC
  effect on CA assembly: enhance CA assembly
[10]
  p24 content of the produced virus: did not change significantly
In vitro [11]
  remaining at 2 h: 102%
[14]; iv, 2 mg/kg
  AUC: 574 ± 151 ng·h/mL
  AUC(0-t): 572 ± 151 ng·h/mL
  C0: 2980 ± 545 ng/mL
  Cmax: 1650 ± 361 ng/mL
  MRT: 17 ± 2.81 min
  Tmax: 4.98 min
  Vd: 2.58 ± 0.707 L/kg
  half-life: 30.8 ± 10.6 min
[14]; iv, 2 mg/kg, CL (i.v.), SD rat, i.v. 2 mg/kg
  clearance: 60.5 mL/min/kg
[14]; po, 20 mg/kg
  AUC: 37.3 ng·h/mL
  AUC(0-t): 10.8 ± 17.4 ng·h/mL
  Cmax: 6.58 ± 8.24 ng/mL
  MRT: 182 min
  Tmax: 20 ± 8.64 min
  half-life: 121 min
[12]
  intrinsic CL in microsomes, CLint(mic): 312.7 mL/min/kg
In vitro [13]
  CLint scaled: 282 mL/min/kg
  half-life: 4.4 min
  microsomal CLint: 313 µL/min/mg
In vitro [13]; % Remaining (NCF = 60 min)
  remaining at 1 h: 94.4%
In vitro [13]; % Remaining (T = 60 min)
  remaining at 1 h: 0.2%

## COc1ccc(-n2c([C@H](Cc3ccccc3)NC(=O)CN3CCN(S(=O)(=O)c4ccc([N+](=O)[O-])cc4)CC3=O)nc3cc(Br)ccc3c2=O)cc1 [11d1, (S)-N-(1-(7-Bromo-3-(4-methoxyphenyl)-4-oxo-3,4-dihydroquinazolin-2-yl)-2-phenylethyl)-2-(4-((4-nitrophenyl)sulfonyl)-2-oxopiperazin-1-yl)acetamide]
HIV-1 IIIB
  SI IIIB (CC50/EC50): >67.20
  Ratio IIIB(EC50)/ROD(EC50): 6.67
HIV-2 ROD; HIV-2 ROD, MT-4 cells
  SI ROD (CC50/EC50): >446.43
HIV-2 ROD; [17]
  EC50: 0.36 ± 0.03 µM
MT-4 cells
  CC50: > 161 µM

## (S)-2-(4-((4-Aminophenyl)sulfonyl)-2-oxopiperazin-1-yl)-N-(2-(3,5-difluorophenyl)-1-(3-(4-methoxyphenyl)-7-(methylsulfonyl)-4-oxo-3,4-dihydroquinazolin-2-yl)ethyl)acetamide [12e2]
HIV-1 IIIB
  SI IIIB (CC50/EC50): >235.85
  Ratio IIIB(EC50)/ROD(EC50): 4.53
HIV-2 ROD; HIV-2 ROD, MT-4 cells
  SI ROD (CC50/EC50): >1041.67
HIV-2 ROD; [17]
  EC50: 0.15 ± 0.03 µM
MT-4 cells
  CC50: > 160 µM

## O=C(CN1CCN(S(=O)(=O)c2ccc([N+](=O)[O-])cc2)CC1=O)N[C@@H](Cc1ccccc1)c1nc2ccccc2c(=O)n1-c1ccc(S(=O)(=O)N2CCOCC2)cc1 [20a1, (S)-N-(1-(3-(4-(Morpholinosulfonyl)phenyl)-4-oxo-3,4-dihydroquinazolin-2-yl)-2-phenylethyl)-2-(4-((4-nitrophenyl)-sulfonyl)-2-oxopiperazin-1-yl)acetamide]
HIV-1 IIIB
  SI IIIB (CC50/EC50): >126.26
  Ratio IIIB(EC50)/ROD(EC50): 3.27
HIV-2 ROD; HIV-2 ROD, MT-4 cells
  SI ROD (CC50/EC50): >416.67
HIV-2 ROD; [17]
  EC50: 0.37 ± 0.09 µM
MT-4 cells
  CC50: > 153 µM

## (S)-N-(1-(7-Fluoro-3-(4-methoxyphenyl)-4-oxo-3,4-dihydroquinazolin-2-yl)-2-phenylethyl)-2-(4-((4-nitrophenyl)sulfonyl)-2-oxopiperazin-1-yl)acetamide [11b1]
HIV-1 IIIB
  SI IIIB (CC50/EC50): >88.03
  Ratio IIIB(EC50)/ROD(EC50): 3.55
HIV-2 ROD; HIV-2 ROD, MT-4 cells
  SI ROD (CC50/EC50): >312.50
HIV-2 ROD; [17]
  EC50: 0.56 ± 0.14 µM
MT-4 cells
  CC50: > 175 µM

## COc1ccc(N(C)C(=O)[C@H](Cc2ccccc2)NC(=O)Cc2c(C)[nH]c3ccccc23)cc1 [PF74, reference compound]
HIV-1 IIIB
  SI IIIB (CC50/EC50): >367.65
HIV-2 ROD; HIV-2 ROD, MT-4 cells
  SI ROD (CC50/EC50): >77.64
HIV-2 ROD; [16]
  EC50: 3.78 ± 0.38 µM
[3]
  CC50: > 294 µM
[4]
  Residence Time Monomer: 0.011 min
[5]
  Residence Time Hexamer: 0.463 min
HIV-1 [15]
  EC50: 0.87 µM
In vitro [13]
  CLint scaled at 1 h, 1 µM: 1900 mL/min/kg
